Publication PMC10610424, “Enhancing Solubility and Dissolution Rate of Antifungal Drug Ketoconazole through Crystal Engineering” (Pharmaceuticals, 2023)
Converted amounts (≈) assume the structure as drawn.

Key:
[1] = cited from earlier work
[2] = value of the coformer (CCF) of the crystal named in the line; source not given; cited from earlier work
[3] = Powder dissolution experiments, basket method; format: physicochemical; conditions: pure water and pH 4.5 acetate buffer, 37 °C, up to 480 min
Procedure: The powder dissolution experiments were performed via a dissolution apparatus (RC12AD dissolution tester, TDTF Technology Co., Ltd., Tianjin, China) by a basket method in pure water and pH 4.5 acetate buffer solution, respectively, with a rotation speed of 100 rpm under a temperature of 37 ± 0.2 °C [67]. […] At regular time intervals of 5, 15, 30, 60, 90, 120, 180, 240, 360, and 480 min, 1 mL of solution was extracted, and the withdrawn solutions were filtered using a 0.45 μm syringe tip filter. […] All the dissolution experiments were performed in triplicate. After the dissolution experiments, residual solids were collected, air-dried, and confirmed by PXRD.

pKa values and ΔpKa rule = format: physicochemical
Excerpt: To understand the crystal nature of the obtained solid forms (a salt or a cocrystal), three commonly used principles have been summarized, such as the ΔpKa rule, the position of the hydroxyl-H atom retrieved from SCXRD data, and the structural characteristics of interacting groups. The pKa values of the starting functional groups, the ΔpKa values between the two considered groups, the geometric parameters of the C−O bond lengths of the carboxylic/carboxylate group, and the endocyclic C−N−C bond angle are provided in Table 2. Firstly, the ΔpKa rule has long been used for the prediction of salt or cocrystal formation. It is generally accepted that when ΔpKa is >4, proton transfer is expected to occur and salt is anticipated to form; when ΔpKa < −1, on the other hand, the formation of non-ionized cocrystals prevails over that of salts. However, if the ΔpKa values are located in the region of −1 to 4, it is impossible to provide a prediction of a salt or a cocrystal. […] Secondly, the residual density map provided by the SXRD data (Figure S3) could be used to distinguish the location of the H atom and, thus, the cocrystal, salt, and salt–cocrystal continuum could be distinguished. […] Thirdly, the ionization state of the structures was also supported by the difference in the C−O bond lengths in a carboxylic/carboxylate group and the bond angle of C24−N4−C25 in the imidazole ring. In a neutral carboxylic group, the length of C−O is longer than that of C=O, while in the carboxylate anion, there is nearly no difference between the bond lengths of C−O and C−O^− [47]. The endocyclic C−N−C bond angle of the cationic N-heterocycle is higher than that of the neutral state.

[4] = Equilibrium solubility, shake flask method, HPLC of KTZ; format: physicochemical; conditions: for Equilibrium solubility, concentration of KTZ / solubility thermodynamic at 48 h: 37.0 °C, mean ± SD, triplicate; for Equilibrium solubility, concentration of KTZ / Solid-form stability of residual solids after equilibrium solubility experiments (PXRD) / solubility thermodynamic at 48 h: 48 h; for Solid-form stability of residual solids after equilibrium solubility experiments (PXRD): ultrapure water and pH 4.5 acetate buffer
Procedure: The solutions were stirred at 160 strokes min^−1 with a magnetic bar at 37 °C for 48 h to reach equilibrium. The suspension was filtered through a 0.22 μm nylon filter membrane, diluted appropriately, and analyzed by subsequent high-performance liquid chromatography (HPLC) analysis. […] An Agilent Eclipse XDB−C18 (250 mm × 4.6 mm, 5 μm) column was used throughout the process of elution with the column temperature set to 30 °C. The mobile phase, consisting of methanol and water (80/20, v/v), was run at 1.0 mL min^−1 with a detection wavelength of 254 nm. The injection sample volume was 10 μL. The measurements were performed based on an external standard method. All the solubility experiments were performed in triplicate and the results are expressed as the mean value ± standard deviation (SD). Residual solids were collected after the equilibrium solubility experiment and characterized by PXRD for solid-form stability examinations.

[5] = Accelerated stability test, PXRD; format: physicochemical; conditions: high temperature 60 °C, high humidity 90%, illumination 4500 lx; 0, 5, 10 days
Procedure: Approximately 50 mg of powdered samples were stored under the three test conditions and measured at regular time intervals (0, 5, and 10 days) by PXRD [68].

SMILES | Solubility in ultrapure water ([1]; ultrapure water) | pKa Values of CCFs [2] | Solid-form stability of residual solids after powder dissolution experiments (PXRD) [3] | ΔpKa Values between CCF and KTZ (pKa values and ΔpKa rule) | Solubility of ketoconazole in distilled water ([4]; distilled water (abstract)) [µg/mL] | Equilibrium solubility, concentration of KTZ ([4]; pH 4.5 acetate buffer) [µg/mL] | Solid-form stability of residual solids after equilibrium solubility experiments (PXRD) ([4]; 37 °C) | Equilibrium solubility, concentration of KTZ ([4]; ultrapure water) [µg/mL] | Solubility increase in water concerning ketoconazole ([4]; water) [fold] | Stability under accelerated storage conditions (PXRD) [5] | solubility at 48 h ([4]; 37 °C, thermodynamic from solid, distilled water (abstract), read-out: Solubility of ketoconazole in distilled water) [µg/mL] | solubility thermodynamic at 48 h ([4]; aqueous buffer, thermodynamic from solid, pH 4.5 acetate buffer) [µg/mL] | solubility thermodynamic at 48 h ([4]; thermodynamic from solid, ultrapure water) [µg/mL] | Solubility in water ([1]; water, 25 °C) [µg/mL]
CC(=O)N1CCN(c2ccc(OCC3COC(Cn4ccnc4)(c4ccc(Cl)cc4Cl)O3)cc2)CC1.O=C(O)c1ccc(O)c(O)c1 (racemic) [KTZ-PCA-I] | approximately 500 μg mL^−1 |  |  |  |  |  |  |  |  |  |  |  |  | 
CC(=O)N1CCN(c2ccc(OCC3COC(Cn4ccnc4)(c4ccc(Cl)cc4Cl)O3)cc2)CC1.O=C(O)c1c(O)cccc1O (racemic) [KTZ−26DHB] |  | 1.6 | remained stable | 3.9 | 139.1 | 263.76 ± 8.51 | remained stable and nondissociable | 139.13 ± 14.25 |  |  |  |  |  | 
CC(=O)N1CCN(c2ccc(OCC3COC(Cn4ccnc4)(c4ccc(Cl)cc4Cl)O3)cc2)CC1.O=C(O)c1cc([N+](=O)[O-])cc([N+](=O)[O-])c1 (racemic) [KTZ−35DNB] |  | 2.8 | remained stable | 3.7 | 191.7 | 273.66 ± 9.87 | remained stable and nondissociable | 191.67 ± 15.95 |  |  |  |  |  | 
CC(=O)N1CCN(c2ccc(OCC3COC(Cn4ccnc4)(c4ccc(Cl)cc4Cl)O3)cc2)CC1.O=C(O)CCCC(=O)O (racemic) [KTZ−GTA] |  | 4.3 |  | 2.2 | 2165.6 | 339.87 ± 28.33 |  | 2165.56 ± 251.34 | 1800 |  |  |  |  | 
CC(=O)N1CCN(c2ccc(OCC3COC(Cn4ccnc4)(c4ccc(Cl)cc4Cl)O3)cc2)CC1.O=C(O)c1ccc(O)c(O)c1 (racemic) [KTZ−PCA-II] |  | 4.5 |  | 2.0 | 386.3 | 308.06 ± 33.95 |  | 386.34 ± 89.30 |  |  |  |  |  | 
CC(=O)N1CCN(c2ccc(OCC3COC(Cn4ccnc4)(c4ccc(Cl)cc4Cl)O3)cc2)CC1 (stereo not drawn) [KTZ, cis-1-acetyl-4-[4-[[2-(2,4-dichlorophenyl)-2-(1-H-imidazole-1-ylmethyl)-1,3-dioxolan-4-yl]methoxy]phenyl] piperazine, reference compound] |  |  |  |  |  |  |  |  |  | stable | 1.2 (≈ 2.26 µM) | 239 ± 4.69 (≈ 451 µM) | 1.2 ± 0.27 (≈ 2.26 µM) | 0.087 (≈ 0.164 µM)
